Laboratory results published in paper PMC5071873, “The Effects of Puerarin on Rat Ventricular Myocytes and the Potential Mechanism” (Scientific Reports, 2016).
Like-named read-outs stand apart in the source and are kept apart here.

Columns and labels:
Kv7.1 = target: T1, Kv7.1 (Homo sapiens, UniProt P51787); experiment: Whole-cell patch clamp of Kv7.1 currents (voltage steps) in transfected HEK293 cells; format: cell-based; settings: for IC50: HEK293, non-linear Hill fit, n = 6 each point; for Kv7.1-tail current density / Kv7.1 current density: at 40 mV; for Kv7.1-tail current density: control 10.4 ± 0.6; for Kv7.1 current density: control 24.3 ± 1.1
T1 construct: expressed in transfected cells; host or cells: HEK293
Description: (§1) The Tyrode’s solution contained (mM): 126 NaCl, 5.4 KCl, 1.8 CaCl2, 1 MgCl2, 0.33 NaH2PO4, 10 HEPES and 10 glucose, pH 7.4 (adjusted with NaOH). The Ca^2+-free Tyrode’s solution was prepared by removing CaCl2 from the Tyrode’s solution. The Kreb’s solution used for cell storage contained (mM): 70 glutamic acid, 30 KCl, 15 taurine, 0.5 MgCl2, 10 KH2PO4, 0.5 EGTA, 10 HEPES, 10 glucose, and 1% albumin, pH 7.4 (adjusted with KOH). The enzyme solution used for the rat cardiomyocyte isolation contained 0.08 g/L collagenase (type II) and 1.0 g/L BSA in Kreb’s solution. For action potential recording on cardiomyocyte, the pipette solution contained (mM): 100 potassium aspartate, 30 KCl, 1 MgCl2, 5 Mg-ATP, 5 EGTA, 5 HEPES, pH 7.3 (adjusted with KOH); the Tyrode’s solution was used as the standard bath solution. For whole-cell recording of IKs on myocytes, the pipette solution contained (mM): 125 potassium aspartate, 20 KCl, 1 MgCl2, 5 Mg-ATP, 10 EGTA, 5 HEPES, pH 7.3 (adjusted with KOH); the bath solution contained (mM): 132 NaCl, 4 KCl, 1.8 CaCl2, 1.2 MgCl2, 10 HEPES, 5 glucose, pH 7.4 (adjusted with NaOH). 3 μM nifedipine and 5 μM E-4031 were used to block the calcium current and IKr, respectively. For whole-cell recording on HEK-293 cells, the pipette solution contained (mM): 140 KCl, 2 MgCl2, 10 HEPES, 0.1 EGTA, 4 K2-ATP, pH 7.3 (adjusted with KOH); the bath solution contained (mM): 120 NaCl, 5 KCl, 1.5 CaCl2, 1 MgCl2, 10 HEPES, 10 glucose, pH 7.4 (adjusted with NaOH). For single-channel recording, the pipette solution (extracellular) contained (mM): 145 KCl, 10 HEPES, 10 glucose, pH 7.4 (adjusted with KOH); the bath solution (intracellular) contained (mM): 145 KCl, 1.2 MgCl2, 10 HEPES, 0.1 EGTA, pH 7.38 (adjusted with KOH).
(§2) Cell suspensions were transferred into a chamber on the stage of a Nikon Eclipse Ti inverted microscope (Tokyo, Japan). The whole-cell recordings were performed using isolated single ventricular myocytes. Patch electrodes were pulled from a horizontal microelectrode puller (P-1000, Sutter Instrument Co, USA) and fire polished to final tip resistance of 4.0–8.0 MΩ when filled with internal solutions. Signals were amplified with an Axopatch 200B amplifier (Axon Instruments, USA) and filtered at 1 kHz. The pCLAMP 9.0 software was used to generate current and voltage clamp protocols, acquire data, and analyse the current traces. The whole-cell series resistance was compensated to more than 80%. All of the experiments were performed at room temperature (22 ± 1 °C). The whole-cell IK1 was elicited by a ramp voltage protocol from −140 to + 40 mV in 1 s, or at a 0 mV holding potential to test potentials from −140 to + 40 mV in 10 mV increments. The IK1 was calculated as the difference between the peak inward current and the holding current level. The whole-cell Kv7.1/IKs were elicited from a −30 mV holding potential to test potentials from −80 to + 40 mV in 10 mV increments.
Human Kir2.1 cDNA, Kir2.3 cDNA, Kv7.1 cDNA and KCNE1 cDNA, was cloned in Human Embryonic Kidney 293 cells, respectively. In some cases, Kv7.1 cDNA and KCNE1 cDNA were simultaneously cloned in Human Embryonic Kidney 293 cells.

rat ventricular myocytes = experiment: Action potential recording on isolated rat ventricular myocytes; format: cell-based; settings: for APA: control 112.5 ± 6.3; for Vmax: control 226.9 ± 12.4; for RMP: control −80.1 ± 2.7
Description: as §1
Single ventricular myocytes were isolated from adult rat hearts via enzymatic dissociation as previously described. Briefly, the rats were anesthetised with 25% chloral hydrate (0.1 g/100 g). Their hearts were excised rapidly and retrogradely perfused on a Langendorff apparatus with a Ca^2+-free Tyrode’s solution for 5 min before the perfusate was switched to an enzymatic solution for 10–20 min. The perfusate was finally changed to Kreb’s solution for 5 min. The perfusates were bubbled with 95% O2 + 5% CO2 and maintained at 37 °C. The ventricles w ere cut into small chunks and gently agitated in Kreb’s solution. The cells were filtered through nylon mesh (pore size 200 μm) and stored in Kreb’s solution at 4 °C.
Action potentials were elicited at 1 Hz by 2 ms current pulses applied using the patch pipette.
as §2

With `O=c1c(-c2ccc(O)cc2)coc2c([C@@H]3O[C@H](CO)[C@@H](O)[C@H](O)[C@H]3O)c(O)ccc12` [Puerarin, 8-c-glucoside of daidzein] the IC50 (Kv7.1; read-out: IC50, inhibition of Kv7.1 at the peak currents) was 36 µM, the IC50 (Kv7.1; read-out: IC50, inhibition of Kv7.1 at the tail currents) was 39.8 µM and the “Hill coefficient, inhibition of Kv7.1” value (Kv7.1; non-linear Hill fit) was 0.997. The Kv7.1-tail current density (Kv7.1; puerarin 10 μM) was 8.8 ± 0.7 pA/pF, the Kv7.1 current density (Kv7.1; puerarin 10 μM) was 19.1 ± 1.0 pA/pF and the “effect on Kv7.1 current activated by isoproterenol, forskolin or 8-Br-cAMP” value (Kv7.1; puerarin 100 μM) was “antagonized such activation effect”. It also gave a Kv7.1-tail current density (Kv7.1; puerarin 100 μM) of 3.8 ± 0.6 pA/pF, a Kv7.1 current density (Kv7.1; puerarin 100 μM) of 7.9 ± 0.8 pA/pF and a Kv7.1-tail current density (Kv7.1; puerarin 1 mM) of 2.5 ± 0.9 pA/pF. The Kv7.1 current density (Kv7.1; puerarin 1 mM) was 6.1 ± 0.4 pA/pF, the Kv7.1-tail current density (Kv7.1; puerarin 10 mM) was 2.0 ± 0.5 pA/pF and the Kv7.1 current density (Kv7.1; puerarin 10 mM) was 4.8 ± 0.8 pA/pF. For the same compound, the APD50 (rat ventricular myocytes; puerarin 0.01 mM, control 71.8 ± 11.8) was 86.9 ± 10.7 ms, the APA (rat ventricular myocytes; puerarin 0.01 mM) was 109.8 ± 8.5 mV and the APD90 (rat ventricular myocytes; puerarin 0.01 mM, control 164.6 ± 21.4) was 188.3 ± 11.5 ms. For the same compound, the Vmax (rat ventricular myocytes; puerarin 0.01 mM) was 217.5 ± 10.7 V/s, the RMP (rat ventricular myocytes; puerarin 0.01 mM) was −80.5 ± 2.2 mV and the “effect on RMP, APA and Vmax” value (rat ventricular myocytes; puerarin 100 μM) was “not affected”. For the same compound, the “effect on isoproterenol-reduced APD (APD50, APD90)” value (rat ventricular myocytes; puerarin 100 μM with isoproterenol 10 nM) was “significantly offseted the reduced effect of isoproterenol”, the APD50 (rat ventricular myocytes; puerarin 100 μM, from (71.8 ± 11.8) mS) was 100.5 ± 14.1 mS and the APD90 (rat ventricular myocytes; puerarin 100 μM, from (164.6 ± 21.4) mS) was 221.6 ± 25.7 mS. The APD50 (rat ventricular myocytes; puerarin 0.1 mM, control 71.8 ± 11.8) was 100.5 ± 14.1 ms, the APA (rat ventricular myocytes; puerarin 0.1 mM) was 114.2 ± 4.9 mV and the APD90 (rat ventricular myocytes; puerarin 0.1 mM, control 164.6 ± 21.4) was 221.6 ± 25.7 ms. It also gave a Vmax (rat ventricular myocytes; puerarin 0.1 mM) of 242.1 ± 13.8 V/s, an RMP (rat ventricular myocytes; puerarin 0.1 mM) of −80.3 ± 1.6 mV and an APD50 (rat ventricular myocytes; puerarin 1 mM, control 71.8 ± 11.8) of 123.6 ± 25.4 ms. For the same compound, the APA (rat ventricular myocytes; puerarin 1 mM) was 115.9 ± 6.2 mV, the APD90 (rat ventricular myocytes; puerarin 1 mM, control 164.6 ± 21.4) was 278.7 ± 28.2 ms and the Vmax (rat ventricular myocytes; puerarin 1 mM) was 236.1 ± 15.9 V/s. For the same compound, the RMP (rat ventricular myocytes; puerarin 1 mM) was −79.7 ± 1.5 mV, the APD50 (rat ventricular myocytes; puerarin 10 mM, control 71.8 ± 11.8) was 131.4 ± 19.6 ms and the APA (rat ventricular myocytes; puerarin 10 mM) was 112.6 ± 4.7 mV. It also gave an APD90 (rat ventricular myocytes; puerarin 10 mM, control 164.6 ± 21.4) of 330.1 ± 22.3 ms, a Vmax (rat ventricular myocytes; puerarin 10 mM) of 238.4 ± 11.5 V/s and an RMP (rat ventricular myocytes; puerarin 10 mM) of −75.3 ± 2.4 mV. It also gave an APD50 (rat ventricular myocytes; puerarin 100 mM, control 71.8 ± 11.8) of 146.9 ± 21.8 ms, an APA (rat ventricular myocytes; puerarin 100 mM) of 113.8 ± 5.1 mV and an APD90 (rat ventricular myocytes; puerarin 100 mM, control 164.6 ± 21.4) of 415.6 ± 28.4 ms. For the same compound, the Vmax (rat ventricular myocytes; puerarin 100 mM) was 240.6 ± 12.1 V/s, the RMP (rat ventricular myocytes; puerarin 100 mM) was −74.7 ± 2.6 mV and the APD50 (rat ventricular myocytes; puerarin 200 mM, control 71.8 ± 11.8) was 162.3 ± 23.5 ms. For the same compound, the APD90 (rat ventricular myocytes; puerarin 200 mM, control 164.6 ± 21.4) was 439.5 ± 29.6 ms, the RMP (rat ventricular myocytes; puerarin 200 mM) was −73.5 ± 2.1 mV and the APA (rat ventricular myocytes; puerarin) was 111.7 ± 5.6 mV. The Vmax (rat ventricular myocytes; puerarin) was 237.8 ± 10.4 V/s.
